Experimental data: patent US4670260A, “Antibiotic for animal feeds” (Bayer Aktiengesellschaft, priority 1984, dated 1987)

System: Streptomyces strain BA 9
Assay: Growth inhibition of producing strain BA 9 by antibiotics
Format: cell-based, Streptomyces sp.
Settings: ISP medium No. 1+, 28° C., 2 d
Experimental: The optimum temperature is 28° (ISP medium No. 1^+, 5 d). No growth was observed on ISP medium No. 7 (tyrosine agar). Melanin is formed on ISP medium No. 6. The growth is inhibited by chloramphenicol (10 μg); erythromycin (10 μg), sulphafurazole (100 μg), streptomycin (10 μg), tetracycline (10 μg), chephaloridine (5 μg) fusidic acid (10 μg), lincomycin (10 μg) and novobiocib (5 μg) (ISP medium No. 1^+, 28° C., 2 d). Growth was good (substrate mycelium) on ISP media Nos. 3, 4 and 5, with sparse formation of aerial mycelium on ISP medium Nos. 3 and 5.

SMILES | growth inhibition of strain BA 9 (10 μg) | other results
CCC[C@@H]1C[C@@H](C(=O)N[C@@H]([C@H]2O[C@H](SC)[C@H](O)[C@@H](O)[C@H]2O)[C@@H](C)O)N(C)C1 [lincomycin] | inhibited | 
CO[C@@H]1[C@@H](OC(N)=O)[C@@H](O)[C@H](Oc2ccc3c(O)c(NC(=O)c4ccc(O)c(CC=C(C)C)c4)c(=O)oc3c2C)OC1(C)C [novobiocib] |  | growth inhibition of strain BA 9 (5 μg): inhibited
CN(C)C1C(=O)C(C(N)=O)=C(O)C2(O)C(=O)C3=C(O)c4c(O)cccc4C(C)(O)C3CC12 (stereo not drawn) [tetracycline] | inhibited | 
O=C(N[C@H](CO)[C@H](O)c1ccc([N+](=O)[O-])cc1)C(Cl)Cl [chloramphenicol] | inhibited | 
CC(=O)O[C@H]1C[C@@]2(C)[C@@H](C[C@@H](O)[C@H]3[C@@]4(C)CC[C@@H](O)[C@@H](C)[C@@H]4CC[C@@]32C)/C1=C(\CCC=C(C)C)C(=O)O [fusidic acid] | inhibited | 
CC[C@H]1OC(=O)[C@H](C)[C@@H](O[C@H]2C[C@@](C)(OC)[C@@H](O)[C@H](C)O2)[C@H](C)[C@@H](O[C@@H]2O[C@H](C)C[C@H](N(C)C)[C@H]2O)[C@](C)(O)C[C@@H](C)C(=O)[C@H](C)[C@@H](O)[C@]1(C)O [erythromycin] | inhibited | 
Cc1noc(NS(=O)(=O)c2ccc(N)cc2)c1C [sulphafurazole] |  | growth inhibition of strain BA 9 (100 μg): inhibited
O=C(Cc1cccs1)N[C@@H]1C(=O)N2C(C(=O)[O-])=C(C[n+]3ccccc3)CS[C@H]12 [chephaloridine] |  | growth inhibition of strain BA 9 (5 μg): inhibited
[H]/N=C(/N)N[C@H]1[C@H](O)[C@@H](O)[C@H](O[C@@H]2O[C@@H](C)[C@](O)(C=O)[C@H]2O[C@@H]2O[C@@H](CO)[C@H](O)[C@@H](O)[C@@H]2NC)[C@@H](N/C(N)=N\[H])[C@@H]1O [streptomycin] | inhibited | 
